Measured values taken from ChEMBL document CHEMBL3886649, “Compounds and compositions for inhibiting the activity of ABL1, ABL2 and BCR-ABL1” (2016).

Target: Tyrosine-protein kinase ABL1 (Homo sapiens, UniProt P00519)
Test: Radiometric Filter-Binding Assay: For determination of ABL kinase activity, the radiometric filter-binding assay was used. The assay was performed by mixing 10 μL of the compound pre-diluted with 10 μL of ATP ([…] with 0.1 μCi [γ-33P]-ATP) with the phospho-acceptor peptide poly[Ala6Glu2LysHBr5Tyr1]=polyAEKY) in 20 mM Tris/HCl pH 7.5, 1 mM DTT, 10 mM MgCl2, 0.01 mM Na3VO4, 50 mM NaCl. 10 μL …
Description: Radiometric Filter-Binding Assay: For determination of ABL kinase activity, the radiometric filter-binding assay was used. […] 10 μL of enzyme (ranging between 5 nM to 20 nM) was added to initiate the reaction. Pre-incubation of enzyme with compounds (when stated) was performed by exposing the enzyme to compounds prior to addition of the substrate mixture (ATP and/or peptide substrate). […] Filter-plates were washed 3× with 0.5% H3PO4, followed by addition of 30 μL scintillation cocktail (Microscint, Perkin Elmer) per well and then analysed in a TopCount NXT scintillation counter (Perkin Elmer).

Tyrosine-protein kinase ABL1, sequence (P00519 whole entry): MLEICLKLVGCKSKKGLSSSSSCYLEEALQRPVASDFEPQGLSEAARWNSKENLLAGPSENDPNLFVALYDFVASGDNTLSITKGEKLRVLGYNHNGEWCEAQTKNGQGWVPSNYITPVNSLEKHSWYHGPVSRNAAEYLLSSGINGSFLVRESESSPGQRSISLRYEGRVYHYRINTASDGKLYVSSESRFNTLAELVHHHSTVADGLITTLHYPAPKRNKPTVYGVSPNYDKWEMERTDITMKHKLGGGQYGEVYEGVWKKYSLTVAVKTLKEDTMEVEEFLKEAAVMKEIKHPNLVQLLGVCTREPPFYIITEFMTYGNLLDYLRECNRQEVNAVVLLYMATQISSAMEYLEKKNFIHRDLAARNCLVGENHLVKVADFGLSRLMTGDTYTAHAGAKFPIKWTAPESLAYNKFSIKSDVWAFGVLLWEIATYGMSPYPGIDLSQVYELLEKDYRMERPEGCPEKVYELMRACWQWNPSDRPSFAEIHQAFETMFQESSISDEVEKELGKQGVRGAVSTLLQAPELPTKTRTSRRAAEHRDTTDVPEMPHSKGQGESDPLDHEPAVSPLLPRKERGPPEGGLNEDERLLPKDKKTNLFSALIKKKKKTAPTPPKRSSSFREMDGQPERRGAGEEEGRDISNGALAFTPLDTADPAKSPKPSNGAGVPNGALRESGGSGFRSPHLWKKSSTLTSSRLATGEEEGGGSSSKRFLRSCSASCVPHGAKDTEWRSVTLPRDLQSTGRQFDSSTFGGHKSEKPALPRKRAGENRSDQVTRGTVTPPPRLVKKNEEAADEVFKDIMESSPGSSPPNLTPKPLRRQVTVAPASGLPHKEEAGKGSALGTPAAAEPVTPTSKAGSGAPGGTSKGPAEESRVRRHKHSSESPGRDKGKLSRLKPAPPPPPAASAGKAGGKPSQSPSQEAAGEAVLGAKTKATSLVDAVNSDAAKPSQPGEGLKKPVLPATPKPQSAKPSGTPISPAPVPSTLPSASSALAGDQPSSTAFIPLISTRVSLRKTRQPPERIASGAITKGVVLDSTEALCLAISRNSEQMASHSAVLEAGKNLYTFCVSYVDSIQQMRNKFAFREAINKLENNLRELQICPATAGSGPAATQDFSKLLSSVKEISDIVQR

Work on `O=C(Nc1ccc(CC(F)(F)F)cc1)c1cccc(-c2cncnc2)c1` yielded an IC50 of 233 nM.

`O=C(Nc1ccc(OC(F)(F)F)cc1)c1cnc(C2CCOCC2)c(-c2cncnc2)c1` showed an IC50 of 3 nM.
